# From patent publication US20090068295A1, “Composition for treating cancer and method of using the same” (Chang Gung University, priority 2007, published 2009)
# Legend:
# [1] = test system: human liver cancer cell line Sk-Hep-1; assay: effect on the cell cycle of Sk-Hep-1; assay type: cell-based
# Method: (§1) Please refer to FIG. 4A and FIG. 4B. […] Please further refer to the following Table 1 and Table 2.
# As shown in FIG. 4A and Table 1, in the cell cycle of Sk-Hep-1, the percentage of G1, S, and G2 phases are about 43.04%, 30.9%, and 23.75% respectively. When treat the Sk-Hep-1 cells with 10 μM of 5-FU alone, the percentage of G1, S, and G2 phases are about 51.51%, 31.19%, and 17.3% respectively. From the comparison with the control, 5-FU can increase the percentage of G1 phase and reduce the percentage of G2 phase. […] From the results, 5-FU combined with EGCG can effectively interrupt the cell cycle of Sk-Hep-1 cells at G1 phase, and prevent the cell cycle from entering S phase.
# P53 protein [2] = assay: P53 protein expression of Hep-G2; assay type: cell-based, human; conditions: Hep-G2 cells, compared with control; concentrations not given
# From the text: (§2) Referring to FIG. 5A and FIG. 5B.
# However, treat Hep-G2 with EGCG can reduce the expression of P53 protein to 0.74-fold.
# [3] = test system: human liver cancer cell line Hep-G2; assay: effect on the cell cycle of Hep-G2; assay type: cell-based
# Method: as §1
# Furthermore, as shown in FIG. 4B and Table 2, in the cell cycle of Hep-G2, the percentage of G1, S, and G2 phases are about 52.7%, 26.54%, and 20.76% respectively. When treat the Hep-G2 cells with 10 μM of 5-FU alone, the percentage of G1, S, and G2 phases are about 47.04%, 42.68%, and 10.29% respectively. From the comparison with the control, 5-FU can increase the percentage of S phase and reduce the percentage of G1 phase and G2 phase. […] From the results, 5-FU combined with EGCG can effectively interrupt the cell cycle of Hep-G2 cells at G1 phase, and prevent the cell cycle from entering S phase and G2 phase.
# P53 protein [4] = assay: P53 protein expression of Sk-Hep-1; assay type: cell-based, human; conditions: Sk-Hep-1 cells, compared with control; concentrations not given
# From the text: as §2
# [5] = test system: human liver cancer cell line Sk-Hep-1; assay: viability of human liver cancer cell line Sk-Hep-1 after treatment; conditions: for viability of Sk-Hep-1: after 48 hours
# [6] = test system: human leukemia cell line K562; assay: viability of human leukemia cell line K562; assay type: cell-based; conditions: 5-FU alone
# From the text: (§3) Please refer to FIG. 6A and FIG. 6B.
# [7] = test system: human leukemia cell line Jurkat T; assay: viability of human leukemia cell line Jurkat T; assay type: cell-based; conditions: 5-FU alone
# From the text: as §3
smiles,measurement,setting,value
"O=C(O[C@@H]1Cc2c(O)cc(O)cc2O[C@@H]1c1cc(O)c(O)c(O)c1)c1cc(O)c(O)c(O)c1 [EGCG, Epigallocatechin gallate]",Cell cycle phase G1 (%),"[1]; EGCG, 50 μM",54.41 ± 5.4%
same,Cell cycle phase G2 (%),"[1]; EGCG, 50 μM",22.09 ± 2.2%
same,Cell cycle phase S (%),"[1]; EGCG, 50 μM",23.51 ± 3.2%
same,Cell cycle phase G1 (%),"[1]; EGCG, 100 μM",56.60 ± 3.8%
same,Cell cycle phase G2 (%),"[1]; EGCG, 100 μM",19.5 ± 0.7%
same,Cell cycle phase S (%),"[1]; EGCG, 100 μM",23.90 ± 3.1%
same,Cell cycle phase G1 (%),"[1]; EGCG, 250 μM",53.92 ± 1.9%
same,Cell cycle phase G2 (%),"[1]; EGCG, 250 μM",17.55 ± 1.7%
same,Cell cycle phase S (%),"[1]; EGCG, 250 μM",28.53 ± 2.3%
same,expression of P53 protein,P53 protein [2],0.74 fold
same,Cell cycle phase G1 (%),"[3]; EGCG, 50 μM",62.15 ± 2.4%
same,Cell cycle phase G2 (%),"[3]; EGCG, 50 μM",9.33 ± 4.7%
same,Cell cycle phase S (%),"[3]; EGCG, 50 μM",28.52 ± 4.3%
same,Cell cycle phase G1 (%),"[3]; EGCG, 100 μM",62.23 ± 5.7%
same,Cell cycle phase G2 (%),"[3]; EGCG, 100 μM",11.51 ± 4.1%
same,Cell cycle phase S (%),"[3]; EGCG, 100 μM",26.26 ± 3.5%
same,Cell cycle phase G1 (%),"[3]; EGCG, 250 μM",61.83 ± 1.6%
same,Cell cycle phase G2 (%),"[3]; EGCG, 250 μM",9.63 ± 1.7%
same,Cell cycle phase S (%),"[3]; EGCG, 250 μM",28.53 ± 1.3%
same,expression of P53 protein,P53 protein [4],1.8 fold
same,viability of Sk-Hep-1,[5]; 50 μM of EGCG,about 90%
same,viability of Sk-Hep-1,[5]; 100 μM of EGCG,~80%
same,viability of Sk-Hep-1,[5]; 250 μM of EGCG,~60%
same,viability of Sk-Hep-1,[5]; 500 μM of EGCG,~50%
"O=c1[nH]cc(F)c(=O)[nH]1 [5-FU, 5-Fluorouracil]",Cell cycle phase G2 (%),"[1]; 5-FU, 10 μM",17.30 ± 0.3%
same,Cell cycle phase S (%),"[1]; 5-FU, 10 μM",31.19 ± 1.4%
same,effect on the viability of K562,[6],almost no effect
same,expression of P53 protein,P53 protein [2],1.64 fold
same,Cell cycle phase G2 (%),"[3]; 5-FU, 10 μM",10.29 ± 2.5%
same,Cell cycle phase S (%),"[3]; 5-FU, 10 μM",42.68 ± 2.4%
same,expression of P53 protein,P53 protein [4],1.64 fold
same,viability at 10 µM,"[5]; Homo sapiens, SK-HEP1, 48 h, read-out: viability of Sk-Hep-1",~75%
same,viability of Jurkat T,[7],about 80%
